Data taken from patent US11214803B2, “Modulators of YAP1 expression” (Ionis Pharmaceuticals, Inc., priority 2019, dated 2022).
pIC50: −log10 of the molar value. Strand notation (5' to 3'): a small letter for the sugar, then the base; units joined by * are phosphorothioate-linked, units joined directly phosphodiester-linked; [ ] holds rarer units or linkages, { } end groups; capitals alone tell only the bases. e = 2'-O-(2-methoxyethyl) (MOE); k = constrained ethyl (cEt); [5mC] = 5-methylcytosine; d = 2'-deoxy (DNA); m = 2'-O-methyl

Test system: Yap1 mRNA
Experiment: Dose-dependent inhibition of human Yap1 in SNU-449 cells (Example 9, RTS36584)
Type: cell-based
Details: free uptake; for % UTC (Yap1 mRNA): approximately 48 hours; for pIC50: linear regression on a log/linear plot
Experimental: Modified oligonucleotides described in the studies above were tested at various doses in SNU-449 cells. Cultured SNU-449 cells at a density of 10,000 cells per well were treated using free uptake with modified oligonucleotides diluted to concentrations described in the tables below. After approximately 48 hours, Yap1 mRNA levels were measured as previously described using the Human Yap1 primer-probe set RTS36584. Yap1 mRNA levels were normalized to total RNA content, as measured by RIBOGREEN®. Results are presented in the tables below as percent control of the amount of Yap1 mRNA relative to untreated control cells (% UTC). IC50s were calculated using a linear regression on a log/linear plot of the data in excel.

Substance	% UTC (Yap1 mRNA) (31.3 nM) [% UTC]	% UTC (Yap1 mRNA) (125.0 nM) [% UTC]	% UTC (Yap1 mRNA) (500.0 nM) [% UTC]	% UTC (Yap1 mRNA) (2000.00 nM) [% UTC]	pIC50
1197215 (kA*kA*kG*dT*dG*dT*dA*dT*dG*dT*d[5mC]*dA*dG*kA*kA*kG) [compound 1197215]	56	31	7	2	7.40
1095593 (kT*kG*dA*dG*dG*dT*dA*dT*dA*dA*d[5mC]*eT*eG*eG*kG*k[5mC]; antisense) [compound 1095593]	73	44	27	10	7.00
1198499 (kT*kT*dT*dA*dG*dG*dA*dT*dG*d[5mC]*dA*eT*kG*eG*kT*eT) [compound 1198499]	89	42	30	12	6.70
1074462 (kG*kG*kA*dA*dA*dT*dT*dG*dT*d[5mC]*dT*d[5mC]*dA*kT*kG*k[5mC]; antisense) [compound 1074462]	90	38	13	3	7.00
1198484 (kG*k[5mC]*dA*d[5mC]*dT*dT*dT*dT*dA*d[5mC]*dA*eT*kT*eA*kG*eG) [compound 1198484]	80	45	24	12	7.00
1198610 (kT*kG*kT*dA*dT*dG*dT*d[5mC]*dA*dG*dA*dA*kG*kA*kG*eT; antisense) [compound 1198610]	69	29	7	2	7.00
1198614 (kT*kA*kA*dA*dG*dT*dG*dT*dA*dT*dG*dT*k[5mC]*kA*kG*eA; antisense) [compound 1198614]	69	26	3	1	7.00
1200858 (kA*kA*kG*dT*dG*mU*dA*dT*dG*dT*d[5mC]*dA*dG*kA*kA*kG; antisense) [compound 1200858]	71	39	14	4	7.00
1198289 (kG*kG*kA*dA*dA*dT*dT*dG*dT*d[5mC]*dT*d[5mC]*kA*eT*kG*e[5mC]; antisense) [compound 1198289]	72	41	18	9	7.00
1198904 (kT*kA*dT*dT*dA*dG*dA*dG*dT*dA*dT*kG*dT*kG*dG*k[5mC]; antisense) [compound 1198904]	78	36	23	10	7.00
1095481 (kT*kG*dA*dG*dG*dT*dA*dT*dA*dA*d[5mC]*dT*kG*eG*kG*e[5mC]) [compound 1095481]	73	47	16	8	7.00
1198286 (kA*kA*kT*dT*dG*dT*d[5mC]*dT*d[5mC]*dA*dT*dG*k[5mC]*e[5mC]*kT*eT; antisense) [compound 1198286]	64	45	22	8	7.00
1198510 (k[5mC]*kT*d[5mC]*dT*dT*dA*dT*dA*dT*dG*dG*eT*kT*eT*kT*eG; antisense) [compound 1198510]	71	44	18	6	7.00
1200862 (kT*kT*kT*dA*dA*mA*dG*dT*dG*dT*dA*dT*dG*kT*k[5mC]*kA; antisense) [compound 1200862]	88	64	35	13	6.70
1198457 (kA*kT*dT*dG*dT*d[5mC]*dT*d[5mC]*dA*dT*dG*e[5mC]*k[5mC]*eT*kT*eA; antisense) [compound 1198457]	82	56	31	12	6.70
1198786 (kT*eG*kT*dA*dT*dG*dT*d[5mC]*dA*dG*dA*dA*eG*eA*kG*kT) [compound 1198786]	63	32	11	2	7.00
1198380 (kA*dG*dA*dG*dT*dA*dT*dG*dT*dG*dG*k[5mC]*eA*kA*eT*kA; antisense) [compound 1198380]	72	55	27	11	7.00
1198856 (k[5mC]*kT*dT*dA*dT*dA*dT*dG*dG*dT*dT*kT*eT*kG*eT*kG; antisense) [compound 1198856]	72	55	24	7	7.00
1198553 (kT*kA*kG*dA*dG*dT*dA*dT*dG*dT*dG*dG*k[5mC]*kA*kA*eT; antisense) [compound 1198553]	65	38	19	6	7.00
1198409 (kA*dG*dT*dG*d[5mC]*dT*dT*dT*dG*dG*dA*kA*eG*kA*eT*k[5mC]; antisense) [compound 1198409]	100	68	45	27	6.40
1198787 (kA*eG*kT*dG*dT*dA*dT*dG*dT*d[5mC]*dA*dG*eA*eA*kG*kA; antisense) [compound 1198787]	68	21	6	1	7.30
1198466 (kA*kG*dA*dG*dT*dA*dT*dG*dT*dG*dG*e[5mC]*kA*eA*kT*eA; antisense) [compound 1198466]	68	44	18	6	7.00
1197235 (kA*kT*kT*dA*mG*dA*dG*dT*dA*dT*dG*dT*dG*kG*k[5mC]*kA; antisense) [compound 1197235]	64	36	16	5	7.00
1198905 (kA*kT*dA*dT*dT*dA*dG*dA*dG*dT*dA*kT*dG*kT*dG*kG; antisense) [compound 1198905]	75	43	21	6	7.00
